This note sets out measurements from patent US20250197359A1, “CANNABINOID RECEPTOR MODULATING COMPOUNDS” (The U.S.A., as Represented by the Secretary, Department of …, priority 2022, published 2025).

Several values for one entry are separate records, joined by “and”; a condition that tells them apart may be missing. Identical values can stand only once.

One assay has as its target T1, Brain/CB1 (Mus musculus, UniProt P47746).
T1 construct: from tissue; host or cells: mouse brain membranes
Briefly: Functional GTPγS binding, Brain/CB1. In kind it is biochemical. The source says:
Furthermore, the intermediates urea compounds 8a-m were chlorinated with phosphorus oxychloride in the presence of DIPEA base to form imidoyl chloride intermediate and reacted with acetamidine hydrochloride/methyl carbamimidothioate iodide/methyl carbamimidoselenoate iodide and other amines to furnish the target compounds (10a-34b) (Scheme 2, FIG. 2, Scheme 5, FIG. 5). The urea derivatives were converted to the thiourea derivatives 9a-9d by employing sodium thiosulfate. Compound 8a-b, 8e-f were converted to corresponding thiourea by employing sodium thiosulfate dissolved in water dioxane mixture and the reaction was heated to 85° C. for 2 h. […] The binding constant for the synthesized compounds were determined by using radioligand binding assay in mouse brain membranes as well as the target compounds were evaluated in vitro at the human CB1 receptor, stably expressed into Chinese hamster ovary (CHO) cells as well as mouse brain membrane CB1.
In general terms: GTPγS is a poorly hydrolysed GTP analogue; its binding reports G protein activation.

For a further assay, the target named is CB1 (UniProt P21554). Briefly: CB1 radioligand binding assay. The following applies: read-out: Ki (CB1). Further details: species or system human. How it is done:
The target compounds were evaluated in vitro at the human CB1 receptor, stably expressed into Chinese hamster ovary (CHO) cells by utilizing radioligand binding studies.
The binding constant for the synthesized compounds were determined by using radioligand binding assay in mouse brain membranes as well as the target compounds were evaluated in vitro at the human CB1 receptor, stably expressed into Chinese hamster ovary (CHO) cells as well as mouse brain membrane CB1. […]

T1 sequence (P47746 whole entry): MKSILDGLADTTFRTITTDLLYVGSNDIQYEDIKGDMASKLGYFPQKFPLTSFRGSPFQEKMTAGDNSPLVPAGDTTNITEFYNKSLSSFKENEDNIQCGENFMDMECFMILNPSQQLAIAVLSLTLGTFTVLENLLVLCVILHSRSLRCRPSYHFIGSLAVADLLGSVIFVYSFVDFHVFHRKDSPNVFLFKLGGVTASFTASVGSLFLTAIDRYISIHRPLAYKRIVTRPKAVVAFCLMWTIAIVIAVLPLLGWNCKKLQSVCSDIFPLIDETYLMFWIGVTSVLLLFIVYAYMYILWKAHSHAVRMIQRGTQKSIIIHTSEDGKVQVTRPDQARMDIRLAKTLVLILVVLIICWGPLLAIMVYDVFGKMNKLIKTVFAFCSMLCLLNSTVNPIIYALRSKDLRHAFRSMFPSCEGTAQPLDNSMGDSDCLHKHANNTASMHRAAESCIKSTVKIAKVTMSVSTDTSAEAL

Consider `CC(N/C(=N/S(=O)(=O)c1ccc(C(F)(F)F)cc1)N1CCC(c2ccccc2)C(c2ccc(Cl)cc2)=N1)C(N)=O` (single isomer, unassigned) [Compound 31a, (Z)-2-(3-(4-chlorophenyl)-4-phenyl-N′-((4-(trifluoromethyl)phenyl)sulfonyl)-1,4,5,6-tetrahydropyridazine-1-carboximidamido) propenamide], for which, at Brain/CB1, the IC50 (commonly the concentration at which inhibition is half-maximal) was 863 nM. In addition, the Ki – broadly, the dissociation constant of the complex between target and ligand, obtained from inhibition or displacement – on CB1 came out at 96.9 nM.

With `CC(N/C(=N/S(=O)(=O)c1ccc(C(F)(F)F)cc1)N1CCC(c2ccccc2)C(c2ccc(Cl)cc2)=N1)C(N)=O` (single isomer, unassigned) [Compound 31b, (Z)-2-(3-(4-chlorophenyl)-4-phenyl-N′-((4-(trifluoromethyl)phenyl)sulfonyl)-1,4,5,6-tetrahydropyridazine-1-carboximidamido) propenamide], the half-maximal inhibitory concentration (IC50) on Brain/CB1 came out at 33 nM. The Ki on CB1 was 8.05 nM.

On to `CCC(N/C(=N/S(=O)(=O)c1ccc(C(F)(F)F)cc1)N1CCC(c2ccccc2)C(c2ccc(Cl)cc2)=N1)C(N)=O` (single isomer, unassigned) [Compound 32b, (Z)-2-(3-(4-chlorophenyl)-4-phenyl-N′-((4-(trifluoromethyl)phenyl)sulfonyl)-1,4,5,6-tetrahydropyridazine-1-carboximidamido) butanamide], for which, on Brain/CB1, the IC50 came to 174 nM. Further, the Ki on CB1 worked out at 77.4 nM.

On Brain/CB1, `NC(=O)C(Cc1ccccc1)N/C(=N/S(=O)(=O)c1ccc(C(F)(F)F)cc1)N1CCC(c2ccccc2)C(c2ccc(Cl)cc2)=N1` (single isomer, unassigned) [Compound 33a, (Z)-2-(3-(4-chlorophenyl)-4-phenyl-N′-((4-(trifluoromethyl)phenyl)sulfonyl)-1,4,5,6-tetrahydropyridazine-1-carboximidamido)-3-phenylpropanamide] showed an IC50 of 423 nM. The inhibition constant Ki at CB1 was found to be 66.8 nM.

`NC(=O)C(Cc1ccccc1)N/C(=N/S(=O)(=O)c1ccc(C(F)(F)F)cc1)N1CCC(c2ccccc2)C(c2ccc(Cl)cc2)=N1` (single isomer, unassigned) [Compound 33b, (Z)-2-(3-(4-chlorophenyl)-4-phenyl-N′-((4-(trifluoromethyl)phenyl)sulfonyl)-1,4,5,6-tetrahydropyridazine-1-carboximidamido)-3-phenylpropanamide]: at Brain/CB1, the IC50 was 12 nM. In addition, the Ki at CB1 was 6.13 nM.

`COC(=O)C(N/C(=N/S(=O)(=O)c1ccc(C(F)(F)F)cc1)N1CCC(c2ccccc2)C(c2ccc(Cl)cc2)=N1)C(C)C` (single isomer, unassigned) [Compound 34a] showed an IC50 at Brain/CB1 of 41 nM. Moreover, the Ki at CB1 was determined as 46.4 nM.

The compound `COC(=O)C(N/C(=N/S(=O)(=O)c1ccc(C(F)(F)F)cc1)N1CCC(c2ccccc2)C(c2ccc(Cl)cc2)=N1)C(C)C` (single isomer, unassigned) [Compound 34b] returned an IC50 on Brain/CB1 of 17 nM. The Ki on CB1 was determined as 2.71 nM.

Take `C/C(N)=N\C(=N\S(=O)(=O)c1cccc(C(F)(F)F)c1)N1CCC(c2ccccc2)C(c2ccc(Cl)cc2)=N1` (stereo not shown) [Compound 10c, (Z)—N—((E)-1-aminoethylidene)-3-(4-chlorophenyl)-4-phenyl-N′-((3-(trifluoromethyl)phenyl)sulfonyl)-5,6-dihydropyridazine-1 (4H)-carboximidamide]: the IC50 at Brain/CB1 is 105 nM. The Ki at CB1 is 28.3 nM.

Regarding `C/C(N)=N\C(=N\S(=O)(=O)c1ccc2ccccc2c1)N1CCC(c2ccccc2)C(c2ccc(Cl)cc2)=N1` (stereo not shown) [Compound 10f, (Z)—N—((E)-1-aminoethylidene)-3-(4-chlorophenyl)-N′-(naphthalen-2-ylsulfonyl)-4-phenyl-5,6-dihydropyridazine-1 (4H)-carboximidamide], the IC50 on Brain/CB1 was 132 nM. Besides, the Ki at CB1 worked out at 31.4 nM.

`C/C(N)=N\C(=N\S(=O)(=O)c1ccccc1)N1CCC(c2ccccc2)C(c2ccc(Cl)cc2)=N1` (stereo not shown) [Compound 10g, (Z)—N—((E)-1-aminoethylidene)-3-(4-chlorophenyl)-4-phenyl-N′-(phenylsulfonyl)-5,6-dihydropyridazine-1 (4H)-carboximidamide] gave an IC50 at Brain/CB1 of 357 nM. Also, the Ki on CB1 is 128 nM and 212 nM.

For the compound `COc1ccc(S(=O)(=O)/N=C(/N=C(\C)N)N2CCC(c3ccccc3)C(c3ccc(Cl)cc3)=N2)cc1` (stereo not shown) [Compound 10h, (Z)—N—((E)-1-aminoethylidene)-3-(4-chlorophenyl)-N′-((4-methoxyphenyl)sulfonyl)-4-phenyl-5,6-dihydropyridazine-1 (4H)-carboximidamide], the IC50 at Brain/CB1 came out at 357 nM. Besides, the Ki at CB1 worked out at 105 nM.

As to `C/C(N)=N\C(=N\S(=O)(=O)c1ccc(I)cc1)N1CCC(c2ccccc2)C(c2ccc(Cl)cc2)=N1` (stereo not shown) [Compound 10i, (Z)—N—((E)-1-aminoethylidene)-3-(4-chlorophenyl)-N′-((4-iodophenyl)sulfonyl)-4-phenyl-5,6-dihydropyridazine-1 (4H)-carboximidamide], the IC50 at Brain/CB1 was 118 nM. On CB1, the Ki was 43 nM.

For the compound `C/C(N)=N\C(=N\S(=O)(=O)c1ccc(F)cc1)N1CCC(c2ccccc2)C(c2ccc(Cl)cc2)=N1` (stereo not shown) [Compound 10j, (Z)—N—((E)-1-aminoethylidene)-3-(4-chlorophenyl)-N′-((4-fluorophenyl)sulfonyl)-4-phenyl-5,6-dihydropyridazine-1 (4H)-carboximidamide], at Brain/CB1, the IC50 was determined as 182 nM. Also, the Ki on CB1 is 59.3 nM.

Take `C/C(N)=N\C(=N\S(=O)(=O)c1ccccc1C(F)(F)F)N1CCC(c2ccccc2)C(c2ccc(Cl)cc2)=N1` (stereo not shown) [Compound 10k, (Z)—N—((E)-1-aminoethylidene)-3-(4-chlorophenyl)-4-phenyl-N′-((2-(trifluoromethyl)phenyl)sulfonyl)-5,6-dihydropyridazine-1 (4H)-carboximidamide]: the IC50 at Brain/CB1 came out at 125 nM. Besides, the Ki at CB1 came out at 50.6 nM.

For `N/C(=N\C(=N\S(=O)(=O)c1ccc(C(F)(F)F)cc1)N1CCC(c2ccccc2)C(c2ccc(Cl)cc2)=N1)c1ccccc1` (stereo not shown) [Compound 10r, (Z)—N—((Z)-amino (phenyl)methylene)-3-(4-chlorophenyl)-4-phenyl-N′-((4-(trifluoromethyl)phenyl)sulfonyl)-5,6-dihydropyridazine-1 (4H)-carboximidamide], the IC50 on Brain/CB1 was 197 nM. For the same compound, the Ki on CB1 is 33 nM.

Take `N/C(=N\C(=N\S(=O)(=O)c1ccc(C(F)(F)F)cc1)N1CCC(c2ccccc2)C(c2ccc(Cl)cc2)=N1)c1ccccc1F` (stereo not shown) [Compound 10t, (Z)—N—((Z)-amino (2-fluorophenyl)methylene)-3-(4-chlorophenyl)-4-phenyl-N′-((4-(trifluoromethyl)phenyl)sulfonyl)-5,6-dihydropyridazine-1 (4H)-carboximidamide]: at Brain/CB1, the IC50 is 25 nM. In addition, the Ki on CB1 was 7.4 nM.

`N/C(=N\C(=N\S(=O)(=O)c1ccc(C(F)(F)F)cc1)N1CCC(c2ccccc2)C(c2ccc(Cl)cc2)=N1)c1ccc(F)cc1` (stereo not shown) [Compound 10u, (Z)—N—((Z)-amino (4-fluorophenyl)methylene)-3-(4-chlorophenyl)-4-phenyl-N′-((4-(trifluoromethyl)phenyl)sulfonyl)-5,6-dihydropyridazine-1 (4H)-carboximidamide] came in with an IC50 at Brain/CB1 of 107 nM. For the same compound, the Ki on CB1 amounted to 27.3 nM.
